Measurements as given in patent US20250230193A1, “CYCLIC COMPOUND HAVING SELECTIVE KRAS INHIBITORY EFFECT ON HRAS AND NRAS” (CHUGAI SEIYAKU KABUSHIKI KAISHA, priority 2022, published 2025).

Key:
[1] = target: GDP-bound HRAS wild-type protein (Homo sapiens, UniProt P01112); test: Binding to HRAS by surface plasmon resonance (SPR), Single Cycle Kinetics; details: KD ratio HRAS/KRAS, SPR, GDP-bound wild-type proteins
[2] = target: GDP-bound NRAS wild-type protein (Homo sapiens, UniProt P01111); test: Binding to NRAS by surface plasmon resonance (SPR), Single Cycle Kinetics; details: KD ratio NRAS/KRAS, SPR, GDP-bound wild-type proteins
Chain of GDP-bound NRAS wild-type protein (P01111 whole entry): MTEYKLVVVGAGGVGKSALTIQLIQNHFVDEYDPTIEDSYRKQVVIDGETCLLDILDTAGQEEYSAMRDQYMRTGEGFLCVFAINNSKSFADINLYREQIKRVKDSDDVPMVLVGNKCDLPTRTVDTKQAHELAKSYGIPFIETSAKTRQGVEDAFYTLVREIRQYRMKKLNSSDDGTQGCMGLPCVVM

Chain of GDP-bound HRAS wild-type protein (P01112 whole entry): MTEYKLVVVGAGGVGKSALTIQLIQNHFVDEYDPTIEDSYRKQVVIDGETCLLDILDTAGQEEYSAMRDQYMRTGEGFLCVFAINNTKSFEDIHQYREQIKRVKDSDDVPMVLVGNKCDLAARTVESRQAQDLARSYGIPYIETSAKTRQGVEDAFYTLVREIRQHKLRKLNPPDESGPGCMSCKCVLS

| SMILES | HRAS/KRAS (ratio of KD value with respect to GDP-bound HRAS wild-type protein to KD value with respect to KRAS) [1] | NRAS/KRAS (ratio of KD value with respect to GDP-bound NRAS wild-type protein to KD value with respect to KRAS) [2] |
| --- | --- | --- |
| CCC[C@H]1C(=O)N[C@@H]([C@@H](C)CC)C(=O)N(C)CC(=O)N(C)[C@H]2C/C=C\CCN(C2=O)[C@@H](Cc2ccc(C(F)(F)F)cc2)C(=O)N(C)CC(=O)N[C@@H](CCc2ccc(C(F)(F)F)c(Cl)c2)C(=O)N2CC3(CC3)C[C@H]2C(=O)NC2(CC(C)(C)C2)C(=O)N(C)[C@@H](CC(C)(C)C)C(=O)N(C)[C@H](C(=O)N(C)C)CC(=O)N1C [PP2979] | B (a compound having 3 or more and less than 10 is denoted as B) | A (a compound having 10 or more and less than 20 is denoted as A) |
| C#CC[C@H]1C(=O)N[C@@H]([C@@H](C)CC)C(=O)N(C)CC(=O)N(C)[C@H]2C/C=C\CCN(C2=O)[C@@H](Cc2ccc(C(F)(F)F)cc2)C(=O)N(C)CC(=O)N[C@@H](CCc2ccc(C(F)(F)F)c(Cl)c2)C(=O)N2CC3(CC3)C[C@H]2C(=O)NC2(CC(C)(C)C2)C(=O)N(C)[C@@H](C2CCCC2)C(=O)N(C)[C@H](C(=O)N(C)C)CC(=O)N1C [PP2980] | B (a compound having 3 or more and less than 10 is denoted as B) | A (a compound having 10 or more and less than 20 is denoted as A) |
| CCC[C@H]1C(=O)N[C@@H](C2CCCC2)C(=O)N(C)CC(=O)N(C)[C@H]2C/C=C\CCN(C2=O)[C@@H](Cc2ccc(C(F)(F)F)cc2)C(=O)N(C)CC(=O)N[C@@H](CCc2ccc(C(F)(F)F)c(Cl)c2)C(=O)N2CC3(CC3)C[C@H]2C(=O)NC2(CC(C)(C)C2)C(=O)N(C)[C@@H](CC(C)(C)C)C(=O)N(C)[C@H](C(=O)N(C)C)CC(=O)N1C [PP2981] | A (a compound having 10 or more and less than 20 is denoted as A) | AA (a compound having 20 or more is denoted as AA) |
| C#CC[C@H]1C(=O)N[C@@H]([C@@H](C)CC)C(=O)N(C)CC(=O)N(C)[C@H]2C/C=C\CCN(C2=O)[C@@H](Cc2ccc(C)cc2)C(=O)N(C)CC(=O)N[C@@H](CCc2ccc(C(F)(F)F)c(Cl)c2)C(=O)N2CC3(CC3)C[C@H]2C(=O)NC2(CC(C)(C)C2)C(=O)N(C)[C@@H](C2CCCC2)C(=O)N(C)[C@H](C(=O)N(C)C)CC(=O)N1C [PP2982] | A (a compound having 10 or more and less than 20 is denoted as A) | A (a compound having 10 or more and less than 20 is denoted as A) |
| CCC[C@H]1C(=O)N[C@@H]([C@@H](C)CC)C(=O)N(C)CC(=O)N(C)[C@H]2C/C=C\CCN(C2=O)[C@@H](Cc2ccc(C(F)(F)F)cc2)C(=O)N(C)CC(=O)N[C@@H](CCc2ccc(C(F)(F)F)c(Cl)c2)C(=O)N2CC3(CC3)C[C@H]2C(=O)NC2(CC(C)(C)C2)C(=O)N(C)[C@@H]([C@@H](C)CC)C(=O)N(C)[C@H](C(=O)N(C)C)CC(=O)N1C [PP2983] | A (a compound having 10 or more and less than 20 is denoted as A) | AA (a compound having 20 or more is denoted as AA) |
| CCC[C@H]1C(=O)N[C@@H](C2CCCC2)C(=O)N(C)CC(=O)N(C)[C@H]2C/C=C\CCN(C2=O)[C@@H](Cc2ccc(C(F)(F)F)cc2)C(=O)N(C)CC(=O)N[C@@H](CCc2ccc(C(F)(F)F)c(Cl)c2)C(=O)N2C[C@H](OCC)C[C@H]2C(=O)NC2(CC(C)(C)C2)C(=O)N(C)[C@@H](C2CCCC2)C(=O)N(C)[C@H](C(=O)N(C)C)CC(=O)N1C [PP2984] | B (a compound having 3 or more and less than 10 is denoted as B) | A (a compound having 10 or more and less than 20 is denoted as A) |
| CCC[C@H]1C(=O)N[C@@H]([C@@H](C)CC)C(=O)N(C)CC(=O)N(C)[C@H]2C/C=C\CCN(C2=O)[C@@H](Cc2ccc(C(F)(F)F)cc2)C(=O)N(C)CC(=O)N[C@@H](CCc2ccc(C(F)(F)F)c(Cl)c2)C(=O)N2CC3(CC3)C[C@H]2C(=O)NC2(CC(C)(C)C2)C(=O)N(C)[C@@H](CC(F)(F)F)C(=O)N(C)[C@H](C(=O)N(C)C)CC(=O)N1C [PP2985] | A (a compound having 10 or more and less than 20 is denoted as A) | AA (a compound having 20 or more is denoted as AA) |
| CCC[C@H]1C(=O)N[C@@H](C2CCCC2)C(=O)N(C)CC(=O)N(C)[C@H]2C/C=C\CCN(C2=O)[C@@H](Cc2ccc(C(F)(F)F)cc2)C(=O)N(C)CC(=O)N[C@@H](CCc2ccc(C(F)(F)F)c(Cl)c2)C(=O)N2CC3(CC3)C[C@H]2C(=O)NC2(CC(C)(C)C2)C(=O)N(C)[C@@H](C2CCCC2)C(=O)N(C)[C@H](C(=O)N(C)C)CC(=O)N1C [PP2986] | A (a compound having 10 or more and less than 20 is denoted as A) | AA (a compound having 20 or more is denoted as AA) |
| CCC[C@H]1C(=O)N[C@@H]([C@@H](C)CC)C(=O)N(C)CC(=O)N(C)[C@H]2C/C=C\CCN(C2=O)[C@@H](Cc2ccc(C(F)(F)F)cc2)C(=O)N(C)CC(=O)N[C@@H](CCc2ccc(C(F)(F)F)c(Cl)c2)C(=O)N2CC3(CC3)C[C@H]2C(=O)NC2(CC(C)(C)C2)C(=O)N(C)[C@@H](CC(C)C)C(=O)N(C)[C@H](C(=O)N(C)C)CC(=O)N1C [PP2987] | A (a compound having 10 or more and less than 20 is denoted as A) | AA (a compound having 20 or more is denoted as AA) |
| CCC[C@H]1C(=O)N[C@@H](C2CCCC2)C(=O)N(C)CC(=O)N(C)[C@H]2C/C=C\CCN(C2=O)[C@@H](Cc2ccc(C)cc2)C(=O)N(C)CC(=O)N[C@@H](CCc2cc(F)c(C(F)(F)F)c(F)c2)C(=O)N2C[C@H](OCC)C[C@H]2C(=O)NC2(CC(C)(C)C2)C(=O)N(C)[C@@H](C2CCCC2)C(=O)N(C)[C@H](C(=O)N(C)C)CC(=O)N1C [PP2988] | B (a compound having 3 or more and less than 10 is denoted as B) | B (a compound having 3 or more and less than 10 is denoted as B) |
| CCC[C@H]1C(=O)N[C@@H](C2CCCC2)C(=O)N(C)CC(=O)N(C)[C@H]2C/C=C\CCN(C2=O)[C@@H](Cc2ccc(C)cc2)C(=O)N(C)CC(=O)N[C@@H](CCc2cc(F)c(C(F)(F)F)c(F)c2)C(=O)N2C[C@H](OCC)C[C@H]2C(=O)NC2(CC(C)(C)C2)C(=O)N(C)[C@@H](CC(C)(C)C)C(=O)N(C)[C@H](C(=O)N(C)C)CC(=O)N1C [PP2989] | A (a compound having 10 or more and less than 20 is denoted as A) | AA (a compound having 20 or more is denoted as AA) |
| CCC[C@H]1C(=O)N[C@@H](C2CCCC2)C(=O)N(C)CC(=O)N(C)[C@H]2C/C=C\CCN(C2=O)[C@@H](Cc2ccc(C)cc2)C(=O)N(C)CC(=O)N[C@@H](CCc2ccc(C(F)(F)F)c(OC)c2)C(=O)N2C[C@H](OCC)C[C@H]2C(=O)NC2(CC(C)(C)C2)C(=O)N(C)[C@@H](C2CCCC2)C(=O)N(C)[C@H](C(=O)N(C)C)CC(=O)N1C [PP2992] | A (a compound having 10 or more and less than 20 is denoted as A) | AA (a compound having 20 or more is denoted as AA) |
| CCC[C@H]1C(=O)N[C@@H]([C@@H](C)CC)C(=O)N(C)CC(=O)N(C)[C@H]2C/C=C\CCN(C2=O)[C@@H](Cc2ccc(C)cc2)C(=O)N(C)CC(=O)N[C@@H](CCc2cc(F)c(C(F)(F)F)c(F)c2)C(=O)N2C[C@H](OCC)C[C@H]2C(=O)NC2(CC(C)(C)C2)C(=O)N(C)[C@@H](CC(F)(F)F)C(=O)N(C)[C@H](C(=O)N(C)C)CC(=O)N1C [PP2993] | A (a compound having 10 or more and less than 20 is denoted as A) | A (a compound having 10 or more and less than 20 is denoted as A) |
| CCC[C@H]1C(=O)N[C@@H](C2CCCC2)C(=O)N(C)CC(=O)N(C)[C@H]2C/C=C\CCN(C2=O)[C@@H](Cc2ccc(C)cc2)C(=O)N(C)CC(=O)N[C@@H](CCc2ccc(C(F)(F)F)c(OC)c2)C(=O)N2CC3(CC3)C[C@H]2C(=O)NC2(CC(C)(C)C2)C(=O)N(C)[C@@H](C2CCCC2)C(=O)N(C)[C@H](C(=O)N(C)C)CC(=O)N1C [PP2994] | A (a compound having 10 or more and less than 20 is denoted as A) | AA (a compound having 20 or more is denoted as AA) |
| CCC[C@H]1C(=O)N[C@@H]([C@@H](C)CC)C(=O)N(C)CC(=O)N(C)[C@H]2C/C=C\CCN(C2=O)[C@@H](Cc2ccc(C)cc2)C(=O)N(C)CC(=O)N[C@@H](CCc2cc(F)c(C(F)(F)F)c(F)c2)C(=O)N2C[C@H](OCC)C[C@H]2C(=O)NC2(CC(C)(C)C2)C(=O)N(C)[C@@H](CC(C)C)C(=O)N(C)[C@H](C(=O)N(C)C)CC(=O)N1C [PP2995] | A (a compound having 10 or more and less than 20 is denoted as A) | A (a compound having 10 or more and less than 20 is denoted as A) |
